Test results published in US20240024273A1, “TOPICAL ADMINISTRATION OF 2-(DIETHYLAMINO)ETHYL 2-(4-ISOBUTYLPHENYL)PROPRIONATE FOR TREATMENT OF DISEASES” (TECHFIELDS PHARMA CO., LTD., priority 2020, published 2024).
Read-outs that look alike come from different tables or passages of the source.

Legend:
[1] = In vitro half-life in plasma; type: in vitro ADME
[2] = Acute maximum tolerated dose study, subcutaneous injection; set-up: species or system Beagle dogs; details: beagle, dog, in vivo, sc
[3] = tested on: mini pigs; assay: 39-week GLP repeated dermal dose toxicity and toxicokinetics study with 4-week recovery; type: in vivo; details: 5, 12.5 and 25 mg/kg dermal, 39 weeks
[4] = tested on: Sprague Dawley rats; assay: Respiratory safety pharmacology study; type: in vivo; details: single dermal dose 50, 250, 750 mg/kg
[5] = Phase 1 clinical study: plasma pharmacokinetics of prodrug and ibuprofen; type: in vivo, human; details: steady-state, 70 mg
[6] = 28-day GLP repeated dermal dose toxicity and toxicokinetics study; set-up: species or system Beagle dogs; details: beagle, dog, in vivo, topical or ocular, 28-day dermal
[7] = Battery of nonclinical pharmacology and toxicology studies (overall); details: in vivo
Description: A battery of pharmacology and toxicology studies including a GLP acute dermal maximum tolerated dose study in rats, a GLP acute dermal maximum tolerated dose study in Beagle dogs, a non-GLP 14-day repeated dermal dose toxicity study in rats, a non-GLP 14-day repeated dermal dose toxicity study in Beagle dogs, a 28-day GLP repeated dermal dose toxicity and toxicokinetics study in rats with 14-day recovery, a 28-day GLP repeated dermal dose toxicity and toxicokinetics study in Beagle dogs with 14-day recovery, a GLP bacterial reverse mutation assay (Ames), a GLP in vitro chromosome aberration assay in CHO-WBL Cells, a GLP in vivo bone marrow micronucleus assay in rats, a behavioral effects in rats using the functional observational battery, a rat respiratory safety pharmacology study, a cardiovascular telemetry study in the unrestrained conscious non-naïve dog, a skin irritation study in rabbits, a study on embryo-fetal development in rats, a 39-week GLP repeated dermal dose toxicity and toxicokinetics study in mini pigs with 4-week recovery, a 26-week GLP repeated dermal dose toxicity and toxicokinetics study in rats with 4-week recovery, a study on fertility and early embryonic development to implantation in rats, a study on embryo-fetal development in rabbits, and a sensitization test in guinea pigs were conducted.

[8] = tested on: Osteoarthritis; assay: Phase 2 study: effect of treatment on sign and symptoms of osteoarthritis at 12 weeks (re-analysis, all patients taken as active); type: in vivo, human; details: for difference from placebo, sign and symptoms of OA: placebo effect assumed −6.1; for Mean ± SEM WOMAC Osteoarthritis Index Composite Score Change from Baselines / Mean ± SEM WOMAC Osteoarthritis Index Composite Score Change from Baselines, adjusted by […] of the testing drug amount: scale 0 to 100
Description: (William G. Bensen, Justus J. Fiechtner, James 1. McMillen, et. al. Treatment of Osteoarthritis with Celecoxib. Mayo Clin Proc, November 1999. Vol 74, 1095-1105.)

For `CCN(CC)CCOC(=O)C(C)c1ccc(CC(C)C)cc1` (stereo not drawn) [2-(diethylamino)ethyl 2-(4-isobutylphenyl)propionate], the “fraction metabolized to ibuprofen in any human tissue (except skin)” value [1] was over 99.9%, the half-life ([1]; in plasma, read-out: in vitro T1/2) was about 4 min and the MTD [2] was 500 mg/kg. The “local or systemic adverse effects” value [3] was “mini pigs with 4-week recovery was done and no test article-related local”, the respiratory changes [4] was 250, and 750 mg/kg of ibuprofenamine were not associated with respiratory and the “relative bioavailability of spray vs topical application (plasma ibuprofen)” value [5] was “comparable at steady-state”. For the same compound, the NOAEL at 28 days ([6]; read-out: NOAEL (not attained; ulcers at application site at lowest dose)) was under 12.4 mg/kg/day, the NOAEL at 28 days ([6]; read-out: systemic NOAEL (tissues other than the dermal application site)) was 24.8 mg/kg/day and the overall safety [7] was “appeared to be safe and were generally well tolerated”. The “difference from placebo, sign and symptoms of OA” value (“difference from placebo … of OA” below) ([8]; 8.75 mg BID, Week 12) was −13.4, the “adjusted best result relative to Celecoxib (100 mg, BID)” value ([8]; 17.5 mg BID) was 6 times and the “best result relative to Celecoxib (100 mg, BID)” value ([8]; 17.5 mg BID) was 3 times. The “difference from placebo, adjusted by […] of the testing drug” value ([8]; 17.5 mg BID, Week 12) was −43.5, the “difference from placebo … of OA” value ([8]; 17.5 mg BID, Week 12) was −22.8 and the “difference from placebo … of OA” value ([8]; 35 mg BID, Week 12) was −16.9. The “Mean ± SEM WOMAC Osteoarthritis Index Composite Score Change from Baselines” value ([8]; 2 sprays/knee (8.75 mg, BID) transdermally, Follow-up (Week13)) was −18.4 ± 3.20, the “Mean ± SEM WOMAC Osteoarthritis Index Composite Score Change from Baselines” value ([8]; 2 sprays/knee (8.75 mg, BID) transdermally, Week 2) was −11.1 ± 2.50 and the “Mean ± SEM WOMAC Osteoarthritis Index Composite Score Change from Baselines” value ([8]; 2 sprays/knee (8.75 mg, BID) transdermally, Week 4) was −18.0 ± 2.50. The “Mean ± SEM WOMAC Osteoarthritis Index Composite Score Change from Baselines” value ([8]; 2 sprays/knee (8.75 mg, BID) transdermally, Week 8) was −18.1 ± 2.92, the “Mean ± SEM WOMAC Osteoarthritis Index Composite Score Change from Baselines” value ([8]; 2 sprays/knee (8.75 mg, BID) transdermally, Week 12) was −19.5 ± 3.18 and the “Mean ± SEM WOMAC Osteoarthritis Index Composite Score Change from Baselines, adjusted by […] of the testing drug amount” value ([8]; 2 sprays/knee (8.75 mg, BID), Follow-up (Week 13)) was −31.6 ± 5.49. For the same compound, the “Mean ± SEM WOMAC Osteoarthritis Index Composite Score Change from Baselines, adjusted by […] of the testing drug amount” value ([8]; 2 sprays/knee (8.75 mg, BID), Week 2) was −19.0 ± 4.29, the “Mean ± SEM WOMAC Osteoarthritis Index Composite Score Change from Baselines, adjusted by […] of the testing drug amount” value ([8]; 2 sprays/knee (8.75 mg, BID), Week 4) was −30.9 ± 4.29 and the “Mean ± SEM WOMAC Osteoarthritis Index Composite Score Change from Baselines, adjusted by […] of the testing drug amount” value ([8]; 2 sprays/knee (8.75 mg, BID), Week 8) was −31.0 ± 5.01. The “Mean ± SEM WOMAC Osteoarthritis Index Composite Score Change from Baselines, adjusted by […] of the testing drug amount” value ([8]; 2 sprays/knee (8.75 mg, BID), Week 12) was −33.4 ± 5.45, the “Mean ± SEM WOMAC Osteoarthritis Index Composite Score Change from Baselines” value ([8]; 4 sprays/knee (17.5 mg, BID) transdermally, Follow-up (Week13)) was −23.4 ± 3.52 and the “Mean ± SEM WOMAC Osteoarthritis Index Composite Score Change from Baselines” value ([8]; 4 sprays/knee (17.5 mg, BID) transdermally, Week 2) was −15.1 ± 2.89. The “Mean ± SEM WOMAC Osteoarthritis Index Composite Score Change from Baselines” value ([8]; 4 sprays/knee (17.5 mg, BID) transdermally, Week 4) was −21.3 ± 3.32, the “Mean ± SEM WOMAC Osteoarthritis Index Composite Score Change from Baselines” value ([8]; 4 sprays/knee (17.5 mg, BID) transdermally, Week 8) was −24.8 ± 3.26 and the “Mean ± SEM WOMAC Osteoarthritis Index Composite Score Change from Baselines” value ([8]; 4 sprays/knee (17.5 mg, BID) transdermally, Week 12) was −28.9 ± 3.38. For the same compound, the “Mean ± SEM WOMAC Osteoarthritis Index Composite Score Change from Baselines, adjusted by […] of the testing drug amount” value ([8]; 4 sprays/knee (17.5 mg, BID), Follow-up (Week 13)) was −40.1 ± 6.04, the “Mean ± SEM WOMAC Osteoarthritis Index Composite Score Change from Baselines, adjusted by […] of the testing drug amount” value ([8]; 4 sprays/knee (17.5 mg, BID), Week 2) was −25.9 ± 4.96 and the “Mean ± SEM WOMAC Osteoarthritis Index Composite Score Change from Baselines, adjusted by […] of the testing drug amount” value ([8]; 4 sprays/knee (17.5 mg, BID), Week 4) was −36.5 ± 5.69. For the same compound, the “Mean ± SEM WOMAC Osteoarthritis Index Composite Score Change from Baselines, adjusted by […] of the testing drug amount” value ([8]; 4 sprays/knee (17.5 mg, BID), Week 8) was −42.5 ± 5.59, the “Mean ± SEM WOMAC Osteoarthritis Index Composite Score Change from Baselines, adjusted by […] of the testing drug amount” value ([8]; 4 sprays/knee (17.5 mg, BID), Week 12) was −49.6 ± 5.80 and the “Mean ± SEM WOMAC Osteoarthritis Index Composite Score Change from Baselines” value ([8]; 8 sprays/knee (35 mg, BID) transdermally, Follow-up (Week13)) was −22.1 ± 3.23. The “Mean ± SEM WOMAC Osteoarthritis Index Composite Score Change from Baselines” value ([8]; 8 sprays/knee (35 mg, BID) transdermally, Week 2) was −11.7 ± 2.88, the “Mean ± SEM WOMAC Osteoarthritis Index Composite Score Change from Baselines” value ([8]; 8 sprays/knee (35 mg, BID) transdermally, Week 4) was −17.0 ± 2.96 and the “Mean ± SEM WOMAC Osteoarthritis Index Composite Score Change from Baselines” value ([8]; 8 sprays/knee (35 mg, BID) transdermally, Week 8) was −21.7 ± 3.28. The “Mean ± SEM WOMAC Osteoarthritis Index Composite Score Change from Baselines” value ([8]; 8 sprays/knee (35 mg, BID) transdermally, Week 12) was −23.0 ± 3.27, the “Mean ± SEM WOMAC Osteoarthritis Index Composite Score Change from Baselines, adjusted by […] of the testing drug amount” value ([8]; 8 sprays/knee (35 mg, BID), Follow-up (Week 13)) was −37.9 ± 5.54 and the “Mean ± SEM WOMAC Osteoarthritis Index Composite Score Change from Baselines, adjusted by […] of the testing drug amount” value ([8]; 8 sprays/knee (35 mg, BID), Week 2) was −20.1 ± 4.94. For the same compound, the “Mean ± SEM WOMAC Osteoarthritis Index Composite Score Change from Baselines, adjusted by […] of the testing drug amount” value ([8]; 8 sprays/knee (35 mg, BID), Week 4) was −29.2 ± 5.08, the “Mean ± SEM WOMAC Osteoarthritis Index Composite Score Change from Baselines, adjusted by […] of the testing drug amount” value ([8]; 8 sprays/knee (35 mg, BID), Week 8) was −37.2 ± 5.63 and the “Mean ± SEM WOMAC Osteoarthritis Index Composite Score Change from Baselines, adjusted by […] of the testing drug amount” value ([8]; 8 sprays/knee (35 mg, BID), Week 12) was −39.5 ± 5.61.
